Columns and labels:
[1] = system: COL1A1, TGFβ1, α-smooth muscle actin protein in LX-2 cells; test: Western Blot of main fibrosis markers in LX-2 cells induced by TGFβ1; assay type: cell-based, human; settings: 20 μmol/L, TGF-β1 2 ng/ml, 24 hours
Protocol: (§1) TGFβ1 induced LX-2 cells and medicament C (using Climycin (HB) or Isovalerylspiramycin I (HY)) administration treatment: LX-2 cells were cultured in DMEM, High Glucose, GlutaMAX™ (Gibco10566016) medium containing 10% fetal bovine serum and mixture of 1% […] and 1% penicillin at 37 DEG C and 5% CO2. 1×10^5 cells per well were plated on a 6-well plate. After 24 hours of culture, the original medium in the 6-well plate was removed by a vacuum pump and added with DMEM medium without 10% fetal bovine serum. After starvation for 24 hours, TGF-β1 (2 ng/ml) was added to induce cell, and different concentration gradients of Carrimycin or Isovalerylspiramycin I were added at the same time, the concentrations were 10 μmol/L and 20 μmol/L respectively. A control group (without adding TGF-β1 induction), TGF-β1 induction group (only TGF-β1 induction) and TGF-β1 induction administration group (both TGF-β1 induction and medicament C treatment) were set.
After the cells were induced by TGFβ1 and continued to be cultured for 24 hours, 1 ml of Ripa lysis solution (containing 1% PMSF) was added to each well of the 6-well plate to extract the protein. And the protein concentration was determined by the BCA method. The sample was loaded at 25 μg/20 μl per well. […]

[2] = system: COL1A1, TGFB1, ACTA2, MMP2 mRNA in skin fibroblasts CCC-ESF-1; assay type: cell-based; settings: CCC-ESF-1, 20 and 40 μmol/L, TGF-β1 5 ng/ml, 24 hours
Protocol: Method for TGFβ1 inducing skin fibroblasts CCC-ESF-1 and administrating Carrimycin and Isovalerylspiramycin I comprises: CCC-ESF-1 was cultured in DMEM, High Glucose, GlutaMAX™ (Gibco 10566016) culture medium containing 10% fetal bovine serum, mixture of 1% penicillin and 1% streptomycin at 37 DEG C and 5% CO2, and was plated in a 6-well according to 3×10^5 cells per well. After culturing for 24 hours, the original culture medium in the 6-well plate was removed by a vacuum pump, and DMEM culture medium without 10% fetal bovine serum was added to be starvation culture for 24 hours. And then TGF-β1 (5 ng/ml) induction was added, and at the same time different concentration gradients of Carrimycin and Isovalerylspiramycin I were added. The concentrations were 20 μmol/L and 40 μmol/L. The following groups were set, control group (without adding TGF-β1 induction), TGF-β1 induction group (only TGF-β1 induction is added) and TGF-β1 induction administration group (both adding TGF-β1 induction and treating with Carrimycin or Isovalerylspiramycin I).
After culturing for 24 hours, the culture medium was discarded, and the Total RNA of […] were extracted according to the operation steps of the TRIzol instructions. According to the operation steps of the instructions of Roche Transcriptor First Strand cDNA Synthesis Kit, Total RNA of LX-2 was reversely transcribed into cDNA. […]

[3] = system: type I collagen α1 promoter COL1A1P; test: COL1A1 promoter-luciferase reporter gene activity in LX2-COL cells; assay type: cell-based, human; settings: 24 hours
Protocol: The constructed monoclonal cells LX2-COL stably expressing the type I collagen al promoter COL1A1P were spread on a 96-well plate with 2×10^4 cells per well. After the cell confluence is about 90%, different concentrations of medicament C (using Carrimycin or Isovalerylspiramycin I) were added, and each group of experiments has 4 replicate holes. Follow the instructions of Bright-Glo™ Luciferase Assay System, the medium in wells were removed after 24 hours, and 50 μl/well of any medium was added to each well. 50 μl of luciferase substrate was added to each well, and detection was performed after 2 min.

[4] = system: COL1A1, TGFB1, ACTA2, MMP2 mRNA in lung fibroblasts MRC-5; test: Real-time PCR of main fibrosis markers in lung fibroblasts MRC-5 induced by TGFβ1; assay type: cell-based; settings: TGF-β1 3 ng/ml, 24 hours
Protocol: Method for TGFβ1 inducing lung fibroblasts MRC-5 and administrating Carrimycin or Isovalerylspiramycin I comprises: MRC-5 was cultured in a MEM (Gibco 11095-080) culture medium containing 10% fetal bovine serum, a mixture of 1% penicillin and 1% streptomycin and 1% non-essential amino acids at 37 DEG C and 5% CO2, and was plated in a 6-well according to 3×10^5 cells per well. After culturing for 24 hours, the original culture medium in the 6-well plate was removed by a vacuum pump, and MEM culture medium without 10% fetal bovine serum was added to be starvation culture for 24 hours. And then TGF-β1 (3 ng/ml) induction was added, and at the same time different concentration gradients of Carrimycin and Isovalerylspiramycin I were added. The concentrations were 10 μmol/L, 20 μmol/L, 40 μmol/L. The following groups were set, control group (without adding TGF-β1 induction), TGF-β1 induction group (only TGF-β1 induction is added) and TGF-β1 induction administration group (both adding TGF-β1 induction and treating with Carrimycin or Isovalerylspiramycin I).
After culturing for 24 hours, the culture medium was discarded, and the Total RNA of MRC-5 cells were extracted according to the operation steps of the TRIzol instructions. According to the operation steps of the instructions of Roche Transcriptor First Strand cDNA Synthesis Kit, Total RNA of […] was reversely transcribed into cDNA. The cDNA, sterile water, Roche FastStart Universal Probe Master (Rox) and ABI TaqMan probes (GAPDH, COL1A1, TGFB1, ACTA2, MMP2) were prepared into a 20 μl reaction system, and the ABI 7500 Fast Real-time PCR System was used for detection. GAPDH was used as an internal control to analyze the results.

[5] = system: COL1A1, TGFB1, ACTA2 mRNA in LX-2 cells; test: Real-time PCR of main fibrosis markers in LX-2 cells induced by TGFβ1; assay type: cell-based, human; settings: TGF-β1 2 ng/ml, 24 hours
Protocol: as §1
After culturing for 24 hours, the medium was discarded, and the total RNA of LX-2 cells were extracted according to the TRIzol instructions. Following the instructions of Roche Transcriptor First Strand cDNA Synthesis Kit, the LX-2 total RNA were to reverse transcribed into cDNA. […]

[6] = in vivo; cited from earlier work

## CO[C@@H]1[C@@H](O[C@@H]2O[C@H](C)[C@@H](O[C@H]3C[C@@](C)(O)[C@@H](OC(=O)CC(C)C)[C@H](C)O3)[C@H](N(C)C)[C@H]2O)[C@@H](CC=O)C[C@@H](C)[C@@H](O[C@H]2CC[C@H](N(C)C)[C@@H](C)O2)/C=C/C=C/C[C@@H](C)OC(=O)C[C@H]1O [Isovalerylspiramycin I]
[1]
  expression of marker proteins COL1A1, TGFβ1, α-smooth muscle actin: significantly inhibited
[2]
  inhibition of COL1A1, TGFB1, ACTA2, and MMP2 (mRNA): significantly inhibit
[3]; 40 μM
  luciferase luminescence (COL1A1 promoter activity): decreased most significantly
[3]; LX2-COL cells, luciferase
  inhibitory effect on the activity of the COL1A1 promoter: significant inhibitory effect
[4]; MRC-5, 40 μmol/L
  effect of inhibiting COL1A1, TGFB1, and ACTA2 at the mRNA level: the best
  effect of inhibiting COL1A1 at the mRNA level: the best
[4]; MRC-5, with the increase of the dose (10, 20, 40 μmol/L)
  expression of COL1A1 (mRNA): decreases
[5]; 20 μmol/L
  inhibitory effect on COL1A1, TGFB1, and ACTA2 at the mRNA level: best inhibitory effect
[5]; with the increase of the doses (10 and 20 μmol/L)
  expression of COL1A1, TGFB1, and ACTA2 (mRNA): decreased

## Carrimycin
[6]
  T1/2β: 23 to 27 h

From patent US20220211735A1, “MEDICAMENT AND COMBINATION PRODUCT USED FOR PREVENTING, ALLEVIATING AND/OR TREATING FIBROSIS, AND USE THEREOF” (priority 2019, published 2022)
